Reference: patent publication US20230381082A1, “PHOTOPROTECTIVE COSMETIC COMPOSITIONS COMPRISING XANTHOMMATIN AS AN ANTIOXIDANT AND UV-FILTER STABILIZER” (SEASPIRE, INC., priority 2020, published 2023)
Converted amounts (≈) assume the structure as drawn. “And” between values parts separate entries of the source, which are not always exact repeats. Equal values may be shown once. “Also recorded” adds a separate entry of the source. Read-outs that look alike come from different tables or passages of the source. One block for each compound: values may come before it.

Assays:
[1] = Oxygen Radical Antioxidant Capacity (ORAC) assay; conditions: for AUC: single antioxidant, 40 uM; for antioxidant activity/capacity compared to known standards (Trolox, vitamin C): 90 minutes at 37° C.
Source text: The ORAC assay measures the antioxidant capacity of biomolecules based on the oxidation of a fluorescein probe by peroxyl radicals (Fluorescence decreases as antioxidant capacity decreases).
The antioxidant properties of ammonium xanthommatin (referred to herein as “xanthommatin”) in an unsaturated solution were compared to known standard antioxidants. The results of the experiments are provided in FIGS. 1-3, illustrating the relative fluorescence value (RFU) over time (in seconds) for known antioxidants Trolox (a vitamin E analogue) and ascorbic acid compared to xanthommatin. Experiments were performed using 10, 20, and 40 μM Trolox, ascorbic acid, and ammonium xanthommatin (“Xa”) and compared to performance of 1:1 Trolox:Xa (20 μM: 20 μM and 40 μM: 40 μM) and 1:1 ascorbic acid:Xa (20 μM: 20 μM and 40 μM: 40 μM).
For antioxidant stabilizing/boosting experiments, the antioxidizing capacity and performance of ammonium xanthommatin only and ammonium xanthommatin blended with equimolar ascorbic acid (vitamin C) or Trolox (a vitamin E analogue) over 90 minutes at 37° C. were tested using a standard Oxygen Radical Antioxidant Capacity (ORAC) Assay. The ORAC assay measured the antioxidant capacity of biomolecules based on the oxidation of a fluorescein probe by peroxyl radicals (Fluorescence decreases as antioxidant capacity decreases). The ORAC assay is described in detail at https://www.cellbiolabs.com/sites/default/files/STA-345-orac-assay-kit.pdf, the contents of which are incorporated by reference herein. […] FIG. 19 provides half life measurements of ammonium xanthommatin in solution compared to vitamin C in solution when assayed at the same concentration. […] FIGS. 20 and 21, respectively, show the performance of vitamin C and vitamin E is extended when combined with ammonium xanthommatin.

[2] = UV-boosting properties: UV absorption of chemical UV filters alone and in combination; format: physicochemical; conditions: for reduction of avobenzone UV-A performance: filter combined with avobenzone
Source text: FIGS. 9-11 show the UV absorption behavior of chemical UV filters octinoxate, avobenzone, and oxybenzone, alone, in combination with avobenzone, and in combination with xanthommatin small molecules in unsaturated solution (0.03 wt %).

[3] = test system: BALB/c 3T3 mouse fibroblast cell lines; experiment: in vitro 3T3 NRU phototoxicity assay; format: cell-based
Experimental: Given the UV filter-boosting features of xanthommatin, we next tested its cytotoxicity with and without exposure to a noncytotoxic dose of UVA light (from 315 to 400 nm and a measuring range between 0-199.9 mW/cm2). In these experiments, cytotoxicity was expressed as a concentration dependent reduction of a neutral red dye uptake within BALB/c 3T3 mouse fibroblast cell lines after treatment both with and without the presence of UVA exposure. […] Instead, the mean photo effect was calculated using Equation 5,
where, the photo effect (PE) at any concentration (C) is defined as the product of the response effect (REC) and the dose effect (DEC) concentrations. MPE values of 0.019, 0.199, and 0.042 were measured for the three independent experiments with xanthommatin. […] In this figure, the grey lines represent data collected in the absence of UVA (−UVA), and the black lines represent data collected with exposure to UVA (+UVA). Data was collected for three independent experiments.
Since the toxicological endpoint of this in vitro 3T3 NRU phototoxicity assay was developed and validated in a joint EU/COLIPA project, this assay is a well-recognized in vitro alternative to the various in vivo tests in use.

[4] = SPF and critical wavelength of xanthommatin in solution; format: physicochemical
Source text: In certain embodiments, the compositions of the present application provide sun protection. In certain embodiments, the compositions provide an SPF of at least about 15, 30, 60, 100, or other suitable amount of protection. In certain embodiments, the amount of phenoxazone and/or phenoxazine compound, a precursor or derivative thereof, or a salt of any of the foregoing (e.g., xanthommatin, a precursor or derivative thereof, or a salt of any one of the foregoing, such as ammonium xanthommatin) in the composition may be altered or adjusted in order to provide a particular SPF. In certain embodiments, the amount of UV-filtering material (e.g., a UV-absorbing compound or a UV-scattering particle) in the composition may be altered or adjusted in order to provide a particular SPF. […]
SPF was calculated using the derived Mansur equation (Sayre, R. M., et al., A comparison of in vivo and in vitro testing of sunscreening formulas. Photochemistry and Photobiology, 1979. 29(3): p. 559-566) according to Equation 1, SPF=CFΣ290^320EE(λ)I(λ)Abs(λ), where EE (λ) represents the erythemal effect spectrum; I(λ) is solar intensity spectrum; Abs(a) absorbance of UV-filter; CF is the correction factor (=10). […] The calculated SPF values were rounded to the nearest whole number. […]

[5] = Absorbance of xanthommatin alone and with FDA approved organic UV filters, 280-500 nm; format: physicochemical; conditions: 0.6 mM in DMSO
Experimental: The performance of ammonium xanthommatin was tested as a broad-spectrum absorber to assess whether the natural optical features of xanthommatin could be used to boost the UV performance of low (<0.2 mM) concentrations of organic UV filters. Xanthommatin's absorbance capabilities were tested alone in solution (FIG. 14) and in combination with FDA approved organic UV filters (FIGS. 15 and 16) over a spectral range of 280-500 nm. We observed a clear relationship between increasing concentrations of xanthommatin and the absorption of UV through visible light (FIG. 14). […] When xanthommatin was combined with the chemical UV filters, a significant increase in both the UVB (300 nm) and UVA (360 nm) range was achieved across all filters tested, where we observed at least a 50% increase in UVA and B performance upon addition with xanthommatin (FIG. 16).

[6] = UV-filter stabilizing properties: UV absorption of chemical UV filters with xanthommatin, day 1 and day 16; format: physicochemical; conditions: xanthommatin at about 0.01 wt %
Source text: This boost in stability in the presence of unsaturated solutions of xanthommatin was consistent across all chemical filters tested, including homosalate, octisalate, octocrylene, oxybenzone, and octinoxate. Between 10-100% UV filtering retention was observed over the course of weeks. Solutions including unsaturated solutions of one or more phenoxazone and/or phenoxazine compound, a precursor or derivative thereof, or a salt of any of the foregoing (e.g., xanthommatin, a precursor or derivative thereof, or a salt of any one of the foregoing, such as ammonium xanthommatin) may also boost the stability of UV-filters in the presence of solar simulated light, or solar light.
The UV-filter stabilizing properties of unsaturated solutions of xanthommatin were explored by comparing the behavior of UV-filter stabilizers over time to UV-filter stabilizers in combination with xanthommatin. As shown in FIGS. 4-8, the addition of unsaturated solutions of xanthommatin to solutions including oxybenzone (FIGS. 4A and 4B), avobenzone (FIGS. 5A and 5B), octi and homo-salate (FIGS. 6A and 6B), octinoxate (FIGS. 7A and 7B) and octocrylene (FIGS. 8A and 8B) increased the UV absorption between about 240 and about 310 nm on day 1, relative to the chemical UV filters alone. […]

[7] = avobenzone combinations, Xa 0.03 wt %

UV absorption 290 nm ([2]; oxybenzone, Xa 0.03 wt %): 2
UV absorption 360 nm ([2]; oxybenzone, Xa 0.03 wt %): 0.31
Structure (SMILES): COc1ccc(C(=O)c2ccccc2)c(O)c1 [Oxy control, oxybenzone]
reduction of avobenzone UV-A performance [2]: about 46%

UV absorption 300 nm [2, 7]: 0.31
UV absorption 360 nm [2, 7]: 1.49
Structure (SMILES): COc1ccc(C(=O)CC(=O)c2ccc(C(C)(C)C)cc2)cc1 [avo control, avobenzone]

UV absorption 310 nm ([2]; octinoxate, Xa 0.03 wt %): 2.53
UV absorption 360 nm ([2]; octinoxate, Xa 0.03 wt %): 0
Structure (SMILES): CCCCC(CC)COC(=O)C=Cc1ccc(OC)cc1 (centres unmarked) [octinox control, octinoxate]
reduction of avobenzone UV-A performance [2]: ~56%

critical wavelength [4]: 385 nm
half life in solution compared to vitamin C ([1]; assayed at the same concentration): two times longer than vitamin C
Structure (SMILES): NC(CC(=O)c1cccc2oc3cc(=O)c4[nH]c(C(=O)O)cc(=O)c4c-3nc12)C(=O)O (centres unmarked) [xanthommatin, Ammonium xanthommatin]
boost of performance of avobenzone ([2]; xanthommatin at 0.03 wt %): up to 109%
enhancement of UVB absorbing power of octinoxate and oxybenzone ([2]; xanthommatin at 0.03 wt %, in some cases): more than 250%
boost of activity of avobenzone in UV-A (360 nm) ([2]; xanthommatin at about 0.03 wt %): about 9%
boost of activity/performance of avobenzone in UV-B (300 nm) ([2]; xanthommatin at about 0.03 wt %, or second filter): ~250%
phototoxicity classification [3]: not phototoxic; also recorded: neither phototoxic nor a photoirritant
EC50 ([3]; −UVA): no EC50-value could be calculated
relative cell viability at the highest test item concentration ([3]; −UVA controls, three independent experiments): 88.5% and 99.3% and 100.6%
absorption profile compared to pure organic UV filters [5]: broader profile that spanned the UVB through visible light regions
effect on UV absorption and stability of chemical UV filters [6]: enhances the UV absorption properties of the chemical UV filters and stabilizes the chemical UV filters over time
antioxidant activity/capacity compared to known standards (Trolox, vitamin C) [1]: comparable activity to vitamin c and vitamin e; also recorded: comparable anti-oxidizing capacity to known antioxidant standards
antioxidant activity/capacity compared to known standards (Trolox, vitamin C) ([1]; listed as ammonium xanthommatin): comparable antioxidizing capacity to known antioxidant standards
relative fluorescence value (RFU) over time ([1]; compared to antioxidant alone, 10, 20, 40 μM): maintain a high RFU value for greater lengths of time
extension of the performance of vitamin C when combined with ammonium xanthommatin ([1]; equimolar blend): 23%
extension of the performance of vitamin E when combined with ammonium xanthommatin ([1]; equimolar blend): 9%
AUC [1]: 56

Second part, the compound before the results:

Structure (SMILES): O=C1O[C@H]([C@@H](O)CO)C(O)=C1O [AA, ascorbic acid, reference compound]
AUC [1]: 55

Structure (SMILES): Cc1c(C)c2c(c(C)c1O)CCC(C)(C(=O)O)O2 (centres unmarked) [Trolox, reference compound]
AUC [1]: 55

Structure (SMILES): CN(C)CCCN1c2ccccc2Sc2ccc(Cl)cc21 [chlorpromazine, reference compound]
EC50 ([3]; Mus musculus, BALB/c3T3, light or radiation study, +UVA, exp. 1, read-out: EC50): 0.221 µg/mL (≈ 0.693 µM)
PIF (photo-irritation-factor = EC50 (−UVA)/EC50(+UVA)) ([3]; exp. 1-3): 37.81 and 37.74 and 40.33
